Test results as given in US11168102B1, “Bicyclic heteroaryl compounds and uses thereof” (Revolution Medicines, Inc., priority 2019, dated 2021).

Tested on: cellular pERK in PC-9 cells (EGFR Ex19Del)
Experiment: Potency assay: pERK (AlphaLISA SureFire Ultra p-ERK1/2) in PC-9 cells
Type: cell-based
Conditions: Homo sapiens, PC-9, 1 h, PC-9 cells (EGFR Ex19Del), 1 hour incubation, AlphaLISA SureFire Ultra p-ERK1/2; read-out: SOS1 pERK IC50

Going from `C[C@@H](Nc1ncnc2c1cc(C1(N)CCOCC1)c(=O)n2C)c1cccc(C(F)F)c1F` [Example 31, 6-(4-aminooxan-4-yl)-4-{[(1R)-1-[3-(difluoromethyl)-2-fluorophenyl]ethyl]amino}-8-methyl-7H,8H-pyrido-[2,3-d]pyrimidin-7-one] to `C[C@@H](Nc1ncnc2c1cc(C1(F)CCS(=N)(=O)CC1)c(=O)n2C)c1cccc(C(F)F)c1F` (some centres unmarked) [Example 29-14], the IC50 rises from 0.0145 µM to 0.0355 µM (2.4-fold).

First: C[C@@H](Nc1ncnc2c1cc(C(=O)N1CCOCC13COC3)c(=O)n2C)c1cccc(C(F)F)c1F [Example 26-35]
Second: C[C@@H](Nc1ncnc2c1cc(C(=O)N1CC[C@@H]3CO[C@@H]3C1)c(=O)n2C)c1cccc(C(F)F)c1F [Example 26-16]
The IC50 of the first is 3.8-fold lower: 0.193 µM for the first, 0.729 µM for the second. The first is the more potent here.

Compared with `CC(=O)N1CC=C(c2cc3c(N[C@H](C)c4cccc(C(F)(F)F)c4F)ncnc3n(C)c2=O)CC1` [Example 1-24], `C[C@@H](Nc1ncnc2c1cc(C1=CCN(C3COC3)CC1)c(=O)n2C)c1cccc(C(F)F)c1F` [Example 1-22] is 3.9-fold higher in IC50: 0.106 µM for the first, 0.416 µM for the second.

`CO[C@@]1(c2cc3c(N[C@H](C)c4cccc(C(F)F)c4F)ncnc3n(C)c2=O)CCN(S(C)(=O)=O)C1` [Example 32-17] and `COC1(c2cc3c(N[C@H](C)c4cccc(C(F)F)c4F)ncnc3n(C)c2=O)CCN(S(C)(=O)=O)C1` (some centres unmarked) [Example 32-6] are within 1.5-fold of each other in IC50: 0.0299 µM for the first, 0.0391 µM for the second.

`C[C@@H](Nc1ncnc2c1cc(C1CC3(C1)CS(=O)(=O)C3)c(=O)n2C)c1cccc(C(F)F)c1F` [Example 33, 6-(4-{[(1R)-1-[3-(difluoromethyl)-2-fluorophenyl]ethyl]amino}-8-methyl-7-oxo-7H,8H-pyrido[2,3-d]pyrimidin-6-yl)-2λ^6-thiaspiro[3.3]heptane-2,2-dione] and `CC(=O)N1CC[C@H](c2cc3c(N[C@H](C)c4cccc(C(F)F)c4F)ncnc3n(C)c2=O)C1` [Example 33-15] are within 1.5-fold of each other in IC50: 0.145 µM for the first, 0.113 µM for the second.

Compared with `COC1(c2cc3c(N[C@H](C)c4cccc(C(F)F)c4F)ncnc3n(C)c2=O)CCN(C(C)=O)C1` (some centres unmarked) [Example 32-9], `COC1(c2cc3c(N[C@H](C)c4cccc(C(F)F)c4F)ncnc3n(C)c2=O)CCCN(C(C)=O)CC1` (some centres unmarked) [Example 32-39] is 3.3-fold higher in IC50: 0.0163 µM for the first, 0.0542 µM for the second.

`C[C@@H](Nc1ncnc2c1cc(C1(F)CN(S(C)(=O)=O)C1)c(=O)n2C)c1cccc(C(F)F)c1F` [Example 29-6] and `COC1(c2cc3c(N[C@H](C)c4cccc(C(F)F)c4F)ncnc3n(C)c2=O)CN(S(C)(=O)=O)C1` [Example 32-10] are within 1.5-fold of each other in IC50: 0.47 µM for the first, 0.436 µM for the second.

Going from `CC(=O)N1CC[C@](C#N)(c2cc3c(N[C@H](C)c4cccc(C(F)F)c4F)ncnc3n(C)c2=O)C1` [Example 36-10] to `CC(=O)N1CCC(C#N)(c2cc3c(N[C@H](C)c4cccc(C(F)F)c4F)ncnc3n(C)c2=O)C1` (some centres unmarked) [Example 36-5], the IC50 rises from 0.044 µM to 0.124 µM (2.8-fold). The first is the more potent here.

Compared with `CO[C@]1(c2cc3c(N[C@H](C)c4cccc(C(F)F)c4F)ncnc3n(C)c2=O)CCN(C(C)=O)[C@@H](C)C1` [Example 32-31], `CO[C@]1(c2cc3c(N[C@H](C)c4cccc(C(F)F)c4F)ncnc3n(C)c2=O)C[C@@H](C)N(C(C)=O)C1` [Example 32-47] is 7.7-fold higher in IC50: 0.0101 µM for the first, 0.0776 µM for the second.

First: COC1(c2cc3c(N[C@H](C)c4cccc(C(F)F)c4F)ncnc3n(C)c2=O)CC2CN(C(C)=O)C2C1 (some centres unmarked) [Example 32-36]
Second: COCC(=O)N1CCC(OC)(c2cc3c(N[C@H](C)c4cccc(C(F)F)c4F)ncnc3n(C)c2=O)CC1 [Example 32-13]
The IC50 of the first is 2.1-fold higher: 0.0931 µM for the first, 0.044 µM for the second.

Compared with `C[C@@H](Nc1ncnc2c1cc(C1(C#N)CCS(=O)(=O)CC1)c(=O)n2C)c1cccc(C(F)F)c1F` [Example 36-1], `C[C@@H](Nc1ncnc2c1cc(C1(C#N)CCN(S(C)(=O)=O)C1)c(=O)n2C)c1cccc(C(F)F)c1F` (some centres unmarked) [Example 36-4] is 7.8-fold higher in IC50: 0.0116 µM for the first, 0.091 µM for the second. The first is the more potent here.

Compared with `C[C@@H](Nc1ncnc2c1cc(C1(O)CC3CCC(C1)S3(=O)=O)c(=O)n2C)c1cccc(C(F)F)c1F` (some centres unmarked) [Example 28-5], `C[C@@H](Nc1ncnc2c1cc(C1(F)CCS(=O)(=NC3CC3)CC1)c(=O)n2C)c1cccc(C(F)F)c1F` (stereo partly drawn) [Example 56, 6-((1R,4r)-1-(cyclopropylimino)-4-fluoro-1-oxidohexahydro-1λ^6-thiopyran-4-yl)-4-(((R)-1-(3-(difluoromethyl)-2-fluorophenyl)ethyl)amino)-8-methylpyrido[2,3-d]pyrimidin-7(8H)-one] is 2.7-fold lower in IC50: 0.157 µM for the first, 0.0572 µM for the second.

First: CC(=O)NC12CC(c3cc4c(N[C@H](C)c5cccc(C(F)F)c5F)ncnc4n(C)c3=O)(C1)C2 [Example 70, N-[3-(4-{[(1R)-1-[3-(difluoromethyl)-2-fluorophenyl]ethyl]amino}-8-methyl-7-oxo-7H,8H-pyrido[2,3-d]pyrimidin-6-yl)bicyclo[1.1.1]pentan-1-yl]acetamide]
Second: C[C@@H](Nc1ncnc2c1cc(C(=O)N1CCC[C@@H]1c1nnn[nH]1)c(=O)n2C)c1cccc(C(F)F)c1F [Example 26-39]
The IC50 of the first is lower: 0.121 µM for the first, greater than 10 µM for the second. The first is the more potent here.

Going from `Cc1nc(N[C@H](C)c2cccc(C(F)F)c2F)c2cc(C(=O)N3CCOCC3)c(=O)n(C)c2n1` [Example 26, 4-{[(1R)-1-[3-(difluoromethyl)-2-fluorophenyl]ethyl]amino}-2,8-dimethyl-6-(morpholine-4-carbonyl)-7H,8H-pyrido[2,3-d]pyrimidin-7-one] to `CC(=O)N1CCC(c2cc3c(N[C@H](C)c4cc(C(F)F)c5cc[nH]c5c4)ncnc3n(C)c2=O)CC1` [Example 48, 6-(1-acetyl-4-piperidyl)-4-[[(1R)-1-[4-(difluoromethyl)-1H-indol-6-yl]ethyl]amino]-8-methyl-pyrido[2,3-d]pyrimidin-7-one], the IC50 rises from 0.388 µM to 1.52 µM (3.9-fold).

Same assay, conditions: Homo sapiens, PC-9, 1 h, read-out: SOS1 pERK IC50

In order of falling IC50:
1. C[C@@H](Nc1ncnc2c1cc(C1(C#N)CCN(C3COC3)CC1)c(=O)n2C)c1cccc(C(F)F)c1F [Example 36-16]  0.222 µM
2. C[C@@H](Nc1ncnc2c1cc(C1(C#N)CCN(C)CC1)c(=O)n2C)c1cccc(C(F)F)c1F [Example 36-2]  0.063 µM
3. C[C@@H](Nc1ncnc2c1cc(C1(N)CCC3(CC1)CS(=O)(=O)C3)c(=O)n2C)c1cccc(C(F)F)c1F [Example 31-5]  0.0267 µM

Same assay, conditions: PC-9 cells (EGFR Ex19Del), 1 hour incubation, AlphaLISA SureFire Ultra p-ERK1/2; read-out: SOS1 pERK IC50

In order of falling IC50:
1. C[C@@H](Nc1ncnc2c1cc(C1(C#N)CCC3(CC1)CS(=O)(=NC1CC1)C3)c(=O)n2C)c1cccc(C(F)F)c1F (single isomer, unassigned) [Example 58-1]  0.386 µM
2. CC(=O)N1CCC2(c3cc4c(N[C@H](C)c5cccc(C(F)F)c5F)ncnc4n(C)c3=O)CC2C1 (single isomer, unassigned) [Example 54-4]  0.301 µM
3. CC1CC(c2cc3c(N[C@H](C)c4cccc(C(F)F)c4F)ncnc3n(C)c2=O)CCS1(=O)=O (some centres unmarked) [Example 33-9]  0.27 µM
4. COC1(c2cc3c(N[C@H](C)c4cccc(C(F)F)c4F)ncnc3n(C)c2=O)CCP(C)(=O)CC1 (some centres unmarked) [Example 32-46]  0.148 µM
5. C[C@@H](Nc1ncnc2c1cc(C13CCOCC1C3)c(=O)n2C)c1cccc(C(F)F)c1F (single isomer, unassigned) [Example 54-2]  0.0828 µM
6. C[C@@H](Nc1ncnc2c1cc(C1=CCS(=O)(=NC3COC3)CC1)c(=O)n2C)c1cccc(C(F)F)c1F (stereo partly drawn) [Example 65, 4-(((R)-1-(3-(difluoromethyl)-2-fluorophenyl)ethyl)amino)-8-methyl-6-((S)-1-(oxetan-3-ylimino)-1-oxido-1,2,3,6-tetrahydro-1λ^6-thiopyran-4-yl)pyrido[2,3-d]pyrimidin-7(8H)-one]  0.0668 µM
7. C[C@@H](Nc1ncnc2c1cc(C1(F)CCS(=O)(=NC3CC3)CC1)c(=O)n2C)c1cccc2c1OCC2(F)F (some centres unmarked) [Example 56-5]  0.0441 µM
